Source: ChEMBL document CHEMBL1149734, “Molluscicidal acridone alkaloids from Angostura paniculata: isolation, structures, and synthesis” (J Nat Prod, 1992)
Values after ≈ are worked out from the molar mass of the structure shown. Active and inactive are the calls of the source. The rule behind the calls is not given here.

Columns and labels:
BT-20 = experiment: Growth inhibition of human BT20 cells by MTT assay; type: functional, cell-based
Biomphalaria glabrata = experiment: Molluscicidal activity against Biomphalaria glabrata; type: functional
HeLa = experiment: Cytotoxicity against human HeLa cells by MTT assay; type: functional, cell-based

COc1cc2[nH]c3c(OC)c(OC)ccc3c(=O)c2c(O)c1OC [CUSPANINE]
growth inhibition (GI) (BT-20): Active
LC50 (Biomphalaria glabrata): 5 µg/mL (≈ 15.1 µM)
IC50 (HeLa): 2.5 µg/mL (≈ 7.55 µM)

COc1cc2[nH]c3c(OC)c(OC)ccc3c(=O)c2c(OC)c1OC [CUSCULINE]
growth inhibition (GI) (BT-20): Active
LC50 (Biomphalaria glabrata): 20 µg/mL (≈ 57.9 µM)
IC50 (HeLa): 8.5 µg/mL (≈ 24.6 µM)
